Assay results taken from PMC7826463, “Pamiparib dose escalation in Chinese patients with non‐mucinous high‐grade ovarian cancer or advanced triple‐negative breast cancer” (Cancer Medicine, 2020).
“And” between values parts separate entries of the source, which are not always exact repeats. Identical values can stand only once.

Experiments:
[1] = tested on: advanced HGOC or TNBC; assay: Progression-free survival, total safety population; format: in vivo, human; settings: Total (N=15)
Experimental: (§1) Secondary objectives were assessment of PK parameters and antitumor activity. Blood samples for the PK analysis were collected at Cycle 1 on Days 1, 2, and 3. Pharmacokinetic sampling was performed at Cycle 1 on Day 1 (predose and at 0.5, 1, 2, 4, 6, 9, and 12 hours postdose), Day 2, Day 3, and Day 10 (predose and at 0.5, 1, 2, 4, 6, 9, and 12 hours postdose); then at Cycles 2 and 3 on Day 1 (predose and at 2 hours postdose). […] Tumor assessments were performed by the investigators at screening, every 6 weeks after the first dose of pamiparib in the 1st year, and every 12 weeks thereafter until progression, per RECIST v1.1. Patients completed the study at the time of their safety follow‐up visit; therefore, radiological assessment of disease progression was not performed after the safety follow‐up visit. Descriptive statistics were used to summarize all study data. Continuous variables included the number of non‐missing observations, mean, standard deviation, median, minimum, and maximum. Categorical variables were summarized by their frequency and percentage. Progression‐free survival was estimated using the Kaplan–Meier method and the corresponding 95% confidence interval (CI) was constructed using Greenwood's formula. Standard PK parameters (i.e., area under the plasma concentration‐time curve [AUC] from time of drug administration; maximum plasma concentration [Cmax]; time to Cmax; elimination half‐life [t1/2]; apparent clearance; and apparent volume of distribution during terminal phase) were estimated and derived using standard non‐compartmental methods.

[2] = tested on: triple-negative breast cancer (TNBC); assay: Antitumor activity per RECIST v1.1 (best overall response, ORR, CBR, PFS) in patients with TNBC; format: in vivo, human
Experimental: as §1, with “visit. Approximately 14 to 18 evaluable patients were expected to enroll in the phase 1 part of the study. The safety population included all patients who received ≥1 dose of pamiparib. The PK population included all patients for whom valid pamiparib PK parameters could be estimated. Antitumor activity per RECIST v1.1 was assessed in all evaluable patients. […] The population evaluable for CA‐125 response included patients in the safety population with baseline CA‐125 ≥2 x upper limit of normal.” for “visit.”

[3] = tested on: non-mucinous high-grade ovarian cancer (HGOC); assay: Antitumor activity per RECIST v1.1 (best overall response, ORR, CBR, PFS) in patients with HGOC; format: in vivo, human
Experimental: as §1, with “visit. Approximately 14 to 18 evaluable patients were expected to enroll in the phase 1 part of the study. The safety population included all patients who received ≥1 dose of pamiparib. The PK population included all patients for whom valid pamiparib PK parameters could be estimated. Antitumor activity per RECIST v1.1 was assessed in all evaluable patients. […] The population evaluable for CA‐125 response included patients in the safety population with baseline CA‐125 ≥2 x upper limit of normal.” for “visit.”

[4] = tested on: patients with advanced solid tumors; settings: cited from earlier work
[5] = tested on: high-grade ovarian cancer (HGOC); assay: CA-125 response per Gynecologic Cancer Intergroup in patients with HGOC; format: in vivo, human
Experimental: Among eligible patients with HGOC, carcinoma antigen 125 (CA‐125) response rate per Gynecologic Cancer Intergroup was also assessed. Patients with HGOC had CA‐125 tested in a local laboratory at baseline, every 6 weeks in the 1st year, and then, every 12 weeks thereafter. CA‐125 responses must have been confirmed and maintained for at least 28 days. Germline and tBRCA1/2 mutations were analyzed as predictive biomarkers of antitumor activity and resistance to pamiparib. BRCA mutations were assessed using next‐generation sequencing, performed by BGI Genomics Co., Ltd, using the germline (gBRCA) or somatic (tBRCA) Hereditary Breast and Ovarian Cancer Test. Approximately 14 to 18 evaluable patients were expected to enroll in the phase 1 part of the study. The safety population included all patients who received ≥1 dose of pamiparib. The PK population included all patients for whom valid pamiparib PK parameters could be estimated. Antitumor activity per RECIST v1.1 was assessed in all evaluable patients. […] The population evaluable for CA‐125 response included patients in the safety population with baseline CA‐125 ≥2 x upper limit of normal.

[6] = tested on: PARP1/2; settings: cited from earlier work
[7] = TNBC (n = 5), RECIST efficacy-evaluable
[8] = TNBC (n = 5), RECIST efficacy-evaluable, 20-60 mg BID
[9] = TNBC (n=6), Kaplan-Meier, NE, not estimable
[10] = HGOC (n = 8), RECIST efficacy-evaluable
[11] = HGOC (n = 8), RECIST efficacy-evaluable, 20-60 mg BID

With `C[C@]12CCCN1CC1=NNC(=O)c3cc(F)cc4[nH]c2c1c34` [pamiparib, Pamiparib] the “Event-free rate at 3 months (95% CI)” value ([1]; Kaplan-Meier) was 50.0 (20.85–73.61) %, the “Event-free rate at 6 months (95% CI)” value ([1]; Kaplan-Meier) was 40.0 (13.52–65.73) % and the “Event-free rate at 9 months (95% CI)” value ([1]; Kaplan-Meier) was 40.0 (13.52–65.73) %. For the same molecule, the “Median PFS (95% CI)” value ([1]; Kaplan-Meier, NE, not estimable) was 4.2 (1.48–NE) months, the “PFS Events” value ([1]; safety population) was 7 (46.7) n (%) and the “PFS events: Disease progression” value ([1]; safety population) was 7 (46.7) n (%). For the same molecule, the “Clinical benefit rate (CR+PR+SD ≥24 weeks)” value [2, 7] was 0 % (95% CI), the “Disease control rate (CR+PR+SD)” value [2, 7] was 0 % (95% CI) and the “Objective response rate (CR+PR)” value [2, 7] was 0 % (95% CI). The “Best overall response: Complete response” value [2, 8] was 0 n (%), the “Best overall response: Partial response” value [2, 8] was 0 n (%) and the “Best overall response: Stable disease” value [2, 8] was 0 n (%). The “Median PFS (95% CI)” value ([2]; TNBC (n=6), Kaplan-Meier) was 1.5 (1.45–1.61) months, the “Event-free rate at 3 months (95% CI)” value [2, 9] was 0 (NE–NE) % and the “Event-free rate at 6 months (95% CI)” value [2, 9] was 0 (NE–NE) %. For the same molecule, the “Event-free rate at 9 months (95% CI)” value [2, 9] was 0 (NE–NE) %, the “PFS Events” value ([2]; TNBC (n=6), safety population) was 5 (83.3) n (%) and the “PFS events: Disease progression” value ([2]; TNBC (n=6), safety population) was 5 n (%) and 5 (83.3) n (%). The “Clinical benefit rate (CR+PR+SD ≥24 weeks)” value [3, 10] was 62.5 % (95% CI) and 62.5 (24.5‐91.5) % (95% CI), the “Disease control rate (CR+PR+SD)” value [3, 10] was 100 % (95% CI) and 100.0 (63.1‐100) % (95% CI) and the “Objective response rate (CR+PR)” value [3, 10] was 25.0 (3.2‐65.1) % (95% CI). For the same molecule, the “Best overall response: Complete response” value [3, 11] was 0 n (%), the “Best overall response: Progressive disease” value [3, 11] was 0 n (%) and the “Event-free rate at 3 months (95% CI)” value ([3]; HGOC (n=9), Kaplan-Meier) was 85.7 (33.41–97.86) %. For the same molecule, the “Event-free rate at 6 months (95% CI)” value ([3]; HGOC (n=9), Kaplan-Meier) was 68.6 (21.28–91.21) %, the “Event-free rate at 9 months (95% CI)” value ([3]; HGOC (n=9), Kaplan-Meier) was 68.6 (21.28–91.21) % and the “Median PFS (95% CI)” value ([3]; HGOC (n=9), Kaplan-Meier, NE, not estimable) was “NE (2.86–NE)”. The “PFS Events” value ([3]; HGOC (n=9), safety population) was 2 (22.2) n (%), the “Confirmed PR, gBRCA WT patients” value ([3]; RECIST-evaluable HGOC (n = 8)) was 1 n and the “Confirmed PR, gBRCA mut patients” value ([3]; RECIST-evaluable HGOC (n = 8)) was 1 n. The “Response duration at data cut-off” value ([3]; one patient with HGOC, 20 mg dose level, PR, treatment ongoing) was 27.7 months, the “Recommended phase 2 dose (RP2D)” value ([4]; FIH study NCT02361723, PO) was 60 mg BID and the “Linearity of pamiparib exposure” value ([4]; FIH study NCT02361723) was “linear up to 80 mg BID”. For the same molecule, the “Maximum tolerated dose (MTD)” value ([4]; FIH study NCT02361723) was 80 mg BID, the CA-125 response rate ([5]; HGOC (n=8), CA-125-evaluable population) was 2 (25.0) n (%) and the “Time to response (per CA-125 criteria), Median (range)” value ([5]; HGOC, n 2 responders) was 1.45 (1.4–1.5) months. The “Potency relative to olaparib (fold more potent)” value [6] was 10 fold.
